Test results as given in ChEMBL document CHEMBL1131646, “Synthesis of some hydroxynaphthazarins and their cardioprotective effects under ischemia-reperfusion in vivo” (Bioorg Med Chem Lett, 1998).

Tests used:
Oryctolagus cuniculus = species on record: Oryctolagus cuniculus; test: Myocardial infarction (MI) size was calculated as a percentage of the infarct area to the total area of the left ventricle of male chinchilla rabbits; format: functional, Heart left ventricle; parameters: concentration or dose not given beside the values
[1] = Lethal dose to produce acute toxicity was evaluated in white crossbred mice weighing 20-25 g; details: mouse, in vivo

| Compound | Activity (Oryctolagus cuniculus) [%] | LD50 [1] [mg/kg] |
| --- | --- | --- |
| Cc1c(O)c(O)c2c(c1O)C(=O)C(SC[C@H](NC(=O)CC[C@H](N)C(=O)O)C(=O)NCC(=O)O)=C(SC[C@H](NC(=O)CC[C@H](N)C(=O)O)C(=O)NCC(=O)O)C2=O | 7.15 | 1350 |
| CC(C)(C)C1=CC(=O)c2c(O)c(O)c(O)c(O)c2C1=O | 10.18 | 170 |
| CCCC1=C(O)C(=O)c2c(O)c(O)c(O)c(O)c2C1=O | 10.08 | 80 |
| Cc1c(O)c(O)c2c(c1O)C(=O)C(SCCO)=C(SCCO)C2=O | 9.97 | 150 |
| O=C(O)CCC1=C(O)C(=O)c2c(O)c(O)c(O)c(O)c2C1=O | 7.9 | 95 |
| CCc1c(O)c(O)c2c(c1O)C(=O)C(SC[C@H](NC(=O)CC[C@H](N)C(=O)O)C(=O)NCC(=O)O)=C(SC[C@H](NC(=O)CC[C@H](N)C(=O)O)C(=O)NCC(=O)O)C2=O | 8.35 | 1480 |
| N[C@@H](CCC(=O)N[C@@H](CSC1=C(SC[C@H](NC(=O)CC[C@H](N)C(=O)O)C(=O)NCC(=O)O)C(=O)c2c(O)c(O)c(O)c(O)c2C1=O)C(=O)NCC(=O)O)C(=O)O | 12.37 | 1210 |
| CCC1=C(O)C(=O)c2c(O)c(O)c(O)c(O)c2C1=O [ECHINOCHROME A] | 7.76 | 87 |
| O=[N+]([O-])OCC(CO[N+](=O)[O-])O[N+](=O)[O-] [NITROGLYCERIN] | 15.23 | – |
| COc1ccc(CCN(C)CCCC(C#N)(c2ccc(OC)c(OC)c2)C(C)C)cc1OC (stereo not drawn) [VERAPAMIL] | 6.51 | – |
